Reference: article PMC8997995, “Amphiphilic Cell-Penetrating Peptides Containing Natural and Unnatural Amino Acids as Drug Delivery Agents” (Cells, 2022)
Non-standard residues stand in square brackets, D forms with d. Residues, ends and D or L forms follow the SMILES beside them. Dip = N[C@H](C(=O)O)C(c1ccccc1)c1ccccc1

Legend:
MDA-MB-231 cells = assay: Confocal microscopy of cellular uptake; type: cell-based, human; settings: MDA-MB-231, F’-GpYEEI 2 µM + peptide 10 μM, 3 h, 37 °C
Experimental: Coverslips were placed in a 6-well plate wells and covered with 2 mL of media. Human epithelial mammary gland/breast adenocarcinoma cells (MDA-MB-231, ATCC No. HTB-26) were used. 200,000 cells per well were seeded with DMEM media low glucose (4 mM L-glutamine, 1000 mg/L glucose, and 110 mg/L sodium pyruvate) overnight on a cover glass in 6-well plates. The cells were treated with the physical mixture of F’-GpYEEI and [DipR]5 (10 μM) or F’-[K(DipR)5] in DMEM media low glucose without FBS and incubated for 3 h at 37 °C in a humidified atmosphere of 5% CO2. Next, the media was removed, and cells were washed three times with 2 mL PBS in each well. Cells were fixed in 2 mL of 3.7% formaldehyde for 10 min and were washed 3 times in PBS (pH 7.6). 1 mL of the Texas red solution was pipetted (40 µL of Texas Red and 100 mg BSA in 10 mL of PBS) in each well to stay for 1 h at room temperature. The cells were washed at least 3 times with 2 mL of PBS for 5 min. The nucleic staining with 13 µL of DAPI on each slide was completed. Cells were covered with a coverslip carefully without air bubbles. The slide dried horizontally overnight in a dark place that had airflow. The cells were photographed and video recorded by using Nikon Instruments A1 Confocal Laser Microscope Series. […]

HEK-293 cells = type: cell-based, human; settings: HEK-293, 25 µM, 24 h incubation, MTS
Experimental: (§1) SK-OV-3, CCRF-CEM, HEK-293, MDA-MB-468, LLC-PK1, and MES-SA were used to determine the cytotoxicity of the synthesized linear and cyclic peptides. About 5000, 10,000, and 50,000 cells were seeded for SK-OV-3, HEK-293, and CCRF-CEM cells, respectively, in 0.1 mL of medium per well of 96-well plates. […]
(§2) Adhesive cells were detached with 0.05% trypsin/EDTA after 15 min. […] The cell viability was measured by utilizing Multi-Mode Microplate Reader (SpectraMax M5 model, Molecular Devices, San Jose, CA, USA) after adding 20 µL of the MTS reagent to each well and incubating for 3 additional hours. […] The percentage of cell viability was calculated using the following equation:(1) =(Average OD values of samples treated with the compound /Average OD values of no treatment samples )∗100

MDA-MB-468 cells = assay: In vitro cytotoxicity (MTS) in MDA-MB-468 cells; type: cell-based, human; settings: MDA-MB-468, 10 µM, 24 h and 72 h incubation
Experimental: as §1, §2

[1] = Circular dichroism, estimate of secondary structure; type: physicochemical; settings: CD, 100 µM peptide in water, principal component regression analysis
Experimental: Samples were prepared in 100 µM concentration dissolved in water only. The cuvette with the 1 mm path length was used for all the measurements. The circular dichroism analysis was performed with a J-1500 Jasco spectrophotometer using nitrogen gas and PM-539 detector. Parameters were selected as follows: data interval 0.1 nm, data points 701, data pitch 0.1 nm, CD scale 200 mdeg/0.1 dOD, FL scale 200 mdeg/0.1 dOD, D.I.T 2 s, bandwidth 1 nm, cell length 1 mm, start mode immediately, scanning mode continuous, scanning speed 50 nm/min, shutter control auto, and N2 flowmeter manual. An average of three readings between 190 and 260 nm were collected for each sample. The analysis was carried out using one of Multivariate Regression Analyses, which is Principal Component Regression (PCR) with a basis set containing 26 proteins reference under the following conditions: standardization of result 100, replaced negative value to zero, and rejection percentage of 1%.

- Other (random coil) [1]: 49.9%
- Turn [1]: 16.6%
- α-helix [1]: 21.4%
- β-sheet [1]: 12.1%
Compound: N=C(N)NCCC[C@@H]1NC(=O)[C@H](C(c2ccccc2)c2ccccc2)NC(=O)[C@H](CCCNC(=N)N)NC(=O)[C@H](C(c2ccccc2)c2ccccc2)NC(=O)[C@H](CCCNC(=N)N)NC(=O)[C@H](C(c2ccccc2)c2ccccc2)NC(=O)[C@H](CCCNC(=N)N)NC(=O)[C@H](C(c2ccccc2)c2ccccc2)NC(=O)[C@H](CCCNC(=N)N)NC(=O)[C@H](C(c2ccccc2)c2ccccc2)NC1=O [[DipR]5] (cyclo([Dip]R[Dip]R[Dip]R[Dip]R[Dip]R))
- localization of F’-GpYEEI delivered by the peptide (MDA-MB-231 cells): mostly localized in the cytosol
- reduction of cell proliferation (HEK-293 cells): 56%
- cytotoxicity (MDA-MB-468 cells): no significant cytotoxicity
